Activity calls are given as the source filed them. The rule behind the calls is not given here.
System: Cell-based STAT3 reporter inhibition, counterscreen
Assay: STAT3 reporter signal reduction – cell-based, counter-screen for STAT1 inhibitor project, dose response (AID 1409)

Row | SMILES | IC50
1 | CCn1c(=O)c2cc(C(=O)N3CCCC3)sc2c2ccccc21 | > 55.7 µM (inactive)
2 | Cc1cc(=O)n(C(NC(=O)c2ccccc2)C(=O)c2ccccc2)cn1 (stereo not drawn) | > 55.7 µM (inactive)
3 | COC(=O)CCS(=O)(=O)c1nc(-c2ccccc2)cc(C(F)(F)F)n1 | 25.5 µM (inactive)
4 | CS(=O)(=O)c1nc(-c2ccco2)cc(C(F)(F)F)n1 | 38 µM (inactive)
5 | COc1ccc(-c2cc(C(F)(F)F)nc(S(=O)(=O)CCCC(=O)Nc3cccnc3Cl)n2)cc1OC | 32.6 µM (inactive)
6 | COc1ccc(CCNC(=O)Cn2c(=O)n(-c3ccc(F)cc3)c(=O)c3sccc32)cc1OC | > 55.7 µM (inactive)
7 | Cn1c(C(=O)N2CCN(c3ccc([N+](=O)[O-])cc3)CC2)cc2c(=O)[nH]c3ccccc3c21 | 28.7 µM (inactive)
8 | Cc1ccc2[nH]c3c(N4CCN(Cc5ccccc5)CC4)ncnc3c2c1 | 16.2 µM (inactive)
9 | COc1ccc(CCNc2ncnc3cc(OC)c(OC)cc23)cc1OC | 14.6 µM (inactive)
10 | CN1CCN(Cc2nc3ccccc3c(=O)n2Cc2nc(-c3ccc4ccccc4c3)cs2)CC1 | 49.2 µM (inactive)
11 | COCC(C)NC(=O)CCS(=O)(=O)c1nc(-c2ccc(OC)cc2)cc(C(F)(F)F)n1 (stereo not drawn) | > 55.7 µM (inactive)
12 | Cc1ccc(-n2nc(C(=O)O)c3ccccc3c2=O)cc1C | > 55.7 µM (inactive)
13 | COc1ccc(-n2c(SCc3cccnc3)nc3c(c2=O)SCC3)cc1OC | > 55.7 µM (inactive)
14 | CCn1c(O)c(/C=N/NC(=O)c2ccncc2)c(=O)n(CC)c1=S | > 55.7 µM (inactive)
15 | CS(=O)(=O)c1nc(-c2ccc(F)cc2)cc(C(F)(F)F)n1 | 23.8 µM (inactive)
16 | CC1C(=O)NN=C1C(=O)N/N=C\C(Br)=C\c1ccccc1 (stereo not drawn) | 23.8 µM (inactive)
17 | CN1CCN(Cc2nc3ccccc3c(=O)n2Cc2nc(-c3cccc([N+](=O)[O-])c3)cs2)CC1 | > 55.7 µM (inactive)
18 | Cc1cccc(/C=C(\c2nc3ccccc3[nH]2)S(=O)(=O)c2ccccc2)c1 | 20.3 µM (inactive)
19 | COC(=O)C1=CN(Cc2ccc(OC)c(OC)c2)C=C(C(=O)OC)C1c1cccs1 | > 55.7 µM (inactive)
20 | O=C(c1ccco1)N1CCN(c2ncnc3c2[nH]c2ccccc23)CC1 | > 55.7 µM (inactive)
21 | COc1ccccc1-c1cc(C(F)(F)F)nc(S(=O)(=O)CCCC(=O)Nc2cccnc2Cl)n1 | 34.6 µM (inactive)
22 | O=C(c1ccco1)N1CCN(c2ncnc3c2[nH]c2ccc(Br)cc23)CC1 | 25.6 µM (inactive)
23 | CCOC(=O)C(=CNc1cc(C)nn1-c1ccccc1)C(=O)OCC | > 55.7 µM (inactive)
24 | CCOC(=O)c1c(C)nc2sc3c(=O)n(-c4ccc(OC)cc4)nnc3c2c1-c1ccc(OC)cc1 | > 55.7 µM (inactive)
25 | CCN(CC)S(=O)(=O)c1ccc(N2CCOCC2)c(NC(=O)c2cc(-c3ccccn3)nc3ccccc23)c1 | 9.73 µM
26 | Cc1ccc(C2=Nc3c(ccc4ccccc34)C(c3ccncc3)=NN2)cc1 | > 55.7 µM (inactive)
27 | CCOC(=O)N1CCN(C(=O)c2ccc(CSc3ccc(Cl)cc3)cc2)CC1 | 16.5 µM (inactive)

Row | SMILES | IC50
28 | O=c1cc(CSc2nc3ccccc3c(=O)[nH]2)c2ccc(O)cc2o1 | > 55.7 µM (inactive)
29 | CS(=O)(=O)c1nc(-c2ccccc2)cc(C(F)(F)F)n1 | 20.8 µM (inactive)
30 | COc1ccccc1-c1cc(C(F)(F)F)nc(S(C)(=O)=O)n1 | 31.8 µM (inactive)
31 | C#Cc1ccc([C@H]2C=C(C(=O)OCC=C)O[C@@H](OCC)[C@@H]2CCCO)cc1 | > 55.7 µM (inactive)
32 | Cc1cc(NC(=O)CCCS(=O)(=O)c2nc(-c3cccs3)cc(C(F)(F)F)n2)no1 | > 55.7 µM (inactive)
33 | CC1(C)Cc2c(ccc3ccccc23)C2=C(C(=O)N3CCCC3)C(=O)C(=O)N21 | > 55.7 µM (inactive)
34 | COc1ccc(-c2cc(C(F)(F)F)nc(S(=O)(=O)CCCC(=O)Nc3cccc(O)c3)n2)cc1OC | 31 µM (inactive)
35 | COc1ccc(CNc2ncnc3cc(Cl)ccc23)cc1OC | > 18.6 µM (inactive)
36 | Cc1ccccc1-c1noc(N)c1C#N | > 55.7 µM (inactive)
37 | Cc1ccc(C(=O)Nc2cccc(N(C)S(C)(=O)=O)c2)cc1S(=O)(=O)Nc1ccccc1 | > 55.7 µM (inactive)
38 | CCOC(=O)CCS(=O)(=O)c1nc(-c2ccccc2)cc(C(F)(F)F)n1 | 24.2 µM (inactive)
39 | O=C(CSc1nc2ccccc2c(=O)[nH]1)c1ccc(O)cc1O | > 55.7 µM (inactive)
40 | COc1ccc(-c2cc(C(F)(F)F)nc(S(=O)(=O)CCCC(=O)Nc3cc(C)on3)n2)cc1OC | 24.8 µM (inactive)
41 | O=C(NNC(=O)c1cccc(S(=O)(=O)N2CCc3ccccc32)c1)c1ccccc1 | 15.9 µM (inactive)
42 | CCOC(=O)N1CCN(C(=O)c2ccc(-n3c(=S)[nH]c4ccccc4c3=O)cc2)CC1 | > 55.7 µM (inactive)
43 | COc1ccccc1CNc1ncnc2cc(Cl)ccc12 | > 55.7 µM (inactive)
44 | CN1CCN(Cc2nc3ccccc3c(=O)n2Cc2nc(-c3ccccc3F)cs2)CC1 | > 55.7 µM (inactive)
45 | CCOc1cc(-c2noc(N)c2C#N)cc(OCC)c1OCC | > 55.7 µM (inactive)
46 | Cc1ccc(-c2csc3ncnc(Sc4nnc(CN5CCCCCC5=O)o4)c23)cc1 | 12.2 µM (inactive)
47 | Cc1ccc(S(=O)(=O)N2CCN(C(C(=O)Nc3ccc(F)cc3)c3ccccc3)CC2)cc1 (stereo not drawn) | > 55.7 µM (inactive)
48 | O=C(c1ccc(Cl)cc1)N1CCN(c2ccnc3cc(Cl)ccc23)CC1 | 22 µM (inactive)
49 | Cn1nnnc1Sc1ncnc2scc(-c3ccc(F)cc3)c12 | 22.6 µM (inactive)
50 | Cc1ccccc1NC(=O)C(=Cc1ccc(C(=O)O)cc1)C(=O)Nc1ccccc1C | > 55.7 µM (inactive)
51 | CCOC(=O)N1CCN(C(=O)/C=C/c2c(C)nn(-c3ccc(F)cc3)c2Cl)CC1 | 37.1 µM (inactive)
52 | O=C(c1ccc2c(c1)N(Cc1ccccc1)C(=O)c1ccccc1S2)N1CCCC1 | > 55.7 µM (inactive)
53 | COc1ccccc1-c1cc(C(F)(F)F)nc(S(=O)(=O)CCCC(=O)N2CCOCC2)n1 | 30.9 µM (inactive)

Reference: PubChem BioAssay AID1409 (The Scripps Research Institute Molecular Screening Center, 2008)
